Values quoted from earlier work, collected in patent publication US7476743B2, “Compounds, compositions, and methods” (Cytokinetics, Inc., priority 2002, dated 2009).

tested on: A549 cells; details: data provided by National Cancer Institute

Row | Compound | GI50
1 | O=c1[nH]cc(F)c(=O)[nH]1 [5-fluorouracil] | 1000 nM
2 | COc1cccc2c1C(=O)c1c(O)c3c(c(O)c1C2=O)C[C@@](O)(C(=O)CO)C[C@@H]3O[C@H]1C[C@H](N)[C@H](O)[C@H](C)O1 [doxorubicin] | 63 nM
3 | NC(=O)NO [hydroxyurea] | 500000 nM
4 | CC(=O)O[C@H]1C(=O)[C@@]2(C)[C@H]([C@H](OC(=O)c3ccccc3)[C@]3(O)C[C@H](OC(=O)[C@H](O)[C@@H](NC(=O)c4ccccc4)c4ccccc4)C(C)=C1C3(C)C)[C@]1(OC(C)=O)CO[C@@H]1C[C@@H]2O [paclitaxel] | 4 nM
